Reference: PubChem BioAssay (NCI)
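These data come from cells grown in 96-well plates and exposed to compound for 48 hours at five concentrations. TGI denotes the concentration required for complete inhibition of growth.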

Experiments:
Assay in all cases: growth of human tumour cells (NCI), 48 h
NCI-H23 lung = test system: NCI-H23 lung
UACC-62 melanoma = test system: UACC-62 melanoma
M14 melanoma = test system: M14 melanoma
LXFL 529 NSCLC = test system: LXFL 529 NSCLC
EKVX NSCLC = test system: EKVX NSCLC
SW-620 colon = test system: SW-620 colon
KM12 colon = test system: KM12 colon
DMS 114 small cell lung = test system: DMS 114 small cell lung
UACC-257 melanoma = test system: UACC-257 melanoma
KM20L2 colon = test system: KM20L2 colon
NCI-H226 lung = test system: NCI-H226 lung
DLD-1 colon = test system: DLD-1 colon
SK-OV-3 ovarian = test system: SK-OV-3 ovarian
HT29 colon = test system: HT29 colon
SK-MEL-28 melanoma = test system: SK-MEL-28 melanoma
OVCAR-5 ovarian = test system: OVCAR-5 ovarian
SF-539 CNS = test system: SF-539 CNS
HOP-62 NSCLC = test system: HOP-62 NSCLC
ACHN renal = test system: ACHN renal
SNB-75 CNS = test system: SNB-75 CNS
MALME-3M melanoma = test system: MALME-3M melanoma
SNB-19 CNS = test system: SNB-19 CNS
M19-MEL melanoma = test system: M19-MEL melanoma
A549 NSCLC = test system: A549 NSCLC
SN12C renal = test system: SN12C renal
HCC-2998 colon = test system: HCC-2998 colon
SK-MEL-2 melanoma = test system: SK-MEL-2 melanoma
HCT-116 colon = test system: HCT-116 colon
UO-31 renal = test system: UO-31 renal
OVCAR-4 ovarian = test system: OVCAR-4 ovarian
NCI-H460 lung = test system: NCI-H460 lung
DMS 273 small cell lung = test system: DMS 273 small cell lung
SF-295 CNS = test system: SF-295 CNS
CCRF-CEM leukemia = test system: CCRF-CEM leukemia
RXF 393 renal = test system: RXF 393 renal
HOP-92 NSCLC = test system: HOP-92 NSCLC
MOLT-4 leukemia = test system: MOLT-4 leukemia
RPMI-8226 leukemia = test system: RPMI-8226 leukemia
HCT-15 colon = test system: HCT-15 colon
K-562 leukemia = test system: K-562 leukemia
SNB-78 CNS = test system: SNB-78 CNS
HL-60(TB) leukemia = test system: HL-60(TB) leukemia
U251 CNS = test system: U251 CNS
SR leukemia = test system: SR leukemia
IGROV1 ovarian = test system: IGROV1 ovarian
HOP-18 NSCLC = test system: HOP-18 NSCLC
SF-268 CNS = test system: SF-268 CNS
786-0 renal = test system: 786-0 renal
OVCAR-8 ovarian = test system: OVCAR-8 ovarian
NCI-H522 lung = test system: NCI-H522 lung
SK-MEL-5 melanoma = test system: SK-MEL-5 melanoma
COLO 205 colon = test system: COLO 205 colon
CAKI-1 renal = test system: CAKI-1 renal
OVCAR-3 ovarian = test system: OVCAR-3 ovarian
TK-10 renal = test system: TK-10 renal
LOX IMVI melanoma = test system: LOX IMVI melanoma
A498 renal = test system: A498 renal

N/N=c1\c2ccccc2c2ccc3c4ccccc4/c(=N\N)c3c12
TGI (NCI-H23 lung): > 100 µM | TGI (UACC-62 melanoma): > 100 µM | TGI (M14 melanoma): > 100 µM | TGI (LXFL 529 NSCLC): > 100 µM | TGI (EKVX NSCLC): > 100 µM | TGI (SW-620 colon): > 100 µM | TGI (KM12 colon): > 100 µM | TGI (DMS 114 small cell lung): > 100 µM | TGI (UACC-257 melanoma): > 100 µM | TGI (KM20L2 colon): > 100 µM | TGI (NCI-H226 lung): > 100 µM | TGI (DLD-1 colon): > 100 µM | TGI (SK-OV-3 ovarian): > 100 µM | TGI (HT29 colon): > 100 µM | TGI (SK-MEL-28 melanoma): > 100 µM | TGI (OVCAR-5 ovarian): > 100 µM | TGI (SF-539 CNS): > 100 µM | TGI (HOP-62 NSCLC): > 100 µM | TGI (ACHN renal): > 100 µM | TGI (SNB-75 CNS): > 100 µM | TGI (MALME-3M melanoma): > 100 µM | TGI (SNB-19 CNS): > 100 µM | TGI (M19-MEL melanoma): > 100 µM | TGI (A549 NSCLC): > 100 µM | TGI (SN12C renal): > 100 µM | TGI (HCC-2998 colon): > 100 µM | TGI (SK-MEL-2 melanoma): > 100 µM | TGI (HCT-116 colon): > 100 µM | TGI (UO-31 renal): > 100 µM | TGI (OVCAR-4 ovarian): > 100 µM | TGI (NCI-H460 lung): > 100 µM | TGI (DMS 273 small cell lung): > 100 µM | TGI (SF-295 CNS): > 100 µM | TGI (CCRF-CEM leukemia): > 100 µM | TGI (RXF 393 renal): > 100 µM | TGI (HOP-92 NSCLC): > 100 µM | TGI (MOLT-4 leukemia): > 100 µM | TGI (RPMI-8226 leukemia): > 100 µM | TGI (HCT-15 colon): > 100 µM | TGI (K-562 leukemia): > 100 µM | TGI (SNB-78 CNS): > 100 µM | TGI (HL-60(TB) leukemia): > 100 µM | TGI (U251 CNS): > 100 µM | TGI (SR leukemia): > 100 µM | TGI (IGROV1 ovarian): > 100 µM | TGI (HOP-18 NSCLC): > 100 µM | TGI (SF-268 CNS): > 100 µM | TGI (786-0 renal): > 100 µM | TGI (OVCAR-8 ovarian): > 100 µM | TGI (NCI-H522 lung): > 100 µM | TGI (SK-MEL-5 melanoma): > 100 µM | TGI (COLO 205 colon): > 100 µM

CCN(CC)c1c(C(=O)/C=C/c2ccc(F)cc2)c(-c2ccccc2)nn(C)c1=O
TGI (NCI-H23 lung): 16.5 µM | TGI (UACC-62 melanoma): 33.1 µM | TGI (M14 melanoma): 25.6 µM | TGI (LXFL 529 NSCLC): 19.9 µM | TGI (EKVX NSCLC): 55.3 µM | TGI (CAKI-1 renal): 69.6 µM | TGI (SW-620 colon): 34.8 µM | TGI (KM12 colon): 18.9 µM | TGI (OVCAR-3 ovarian): 21.2 µM | TGI (DMS 114 small cell lung): 19.2 µM | TGI (UACC-257 melanoma): 21.2 µM | TGI (TK-10 renal): 38.5 µM | TGI (KM20L2 colon): 44.4 µM | TGI (LOX IMVI melanoma): 23.6 µM | TGI (A498 renal): 21.1 µM | TGI (NCI-H226 lung): 34 µM | TGI (DLD-1 colon): 26.7 µM | TGI (SK-OV-3 ovarian): 60.8 µM | TGI (HT29 colon): 18.6 µM | TGI (SK-MEL-28 melanoma): 31.5 µM | TGI (OVCAR-5 ovarian): 41.9 µM | TGI (HOP-62 NSCLC): 28.6 µM | TGI (ACHN renal): 20.6 µM | TGI (SNB-75 CNS): 22.5 µM | TGI (MALME-3M melanoma): 27.8 µM | TGI (SNB-19 CNS): 58.4 µM | TGI (M19-MEL melanoma): 25.1 µM | TGI (A549 NSCLC): 43.2 µM | TGI (SN12C renal): 21.8 µM | TGI (HCC-2998 colon): 10.5 µM | TGI (SK-MEL-2 melanoma): 16.7 µM | TGI (HCT-116 colon): 14.5 µM | TGI (UO-31 renal): 24.4 µM | TGI (OVCAR-4 ovarian): 20.5 µM | TGI (NCI-H460 lung): 18.8 µM | TGI (DMS 273 small cell lung): 21 µM | TGI (SF-295 CNS): 34 µM | TGI (CCRF-CEM leukemia): 6.82 µM | TGI (RXF 393 renal): 11 µM | TGI (HOP-92 NSCLC): 19.4 µM | TGI (MOLT-4 leukemia): 5.91 µM | TGI (RPMI-8226 leukemia): 9.89 µM | TGI (HCT-15 colon): 25.7 µM | TGI (K-562 leukemia): 34.1 µM | TGI (SNB-78 CNS): 44.9 µM | TGI (HL-60(TB) leukemia): 15.7 µM | TGI (U251 CNS): 19.1 µM | TGI (IGROV1 ovarian): 21.9 µM | TGI (HOP-18 NSCLC): 58.4 µM | TGI (SF-268 CNS): 35.8 µM | TGI (786-0 renal): 23.2 µM | TGI (OVCAR-8 ovarian): 19.1 µM | TGI (NCI-H522 lung): 13.9 µM | TGI (SK-MEL-5 melanoma): 21.1 µM | TGI (COLO 205 colon): 14.8 µM

CC(C)C(NCc1c2ccccc2[n+]([O-])c2ccccc12)C(=O)O (stereo not given)
TGI (NCI-H23 lung): > 100 µM | TGI (UACC-62 melanoma): > 100 µM | TGI (M14 melanoma): > 100 µM | TGI (LXFL 529 NSCLC): > 100 µM | TGI (EKVX NSCLC): > 100 µM | TGI (CAKI-1 renal): > 100 µM | TGI (SW-620 colon): > 100 µM | TGI (KM12 colon): > 100 µM | TGI (OVCAR-3 ovarian): > 100 µM | TGI (DMS 114 small cell lung): > 100 µM | TGI (UACC-257 melanoma): > 100 µM | TGI (TK-10 renal): > 100 µM | TGI (KM20L2 colon): > 100 µM | TGI (LOX IMVI melanoma): > 100 µM | TGI (A498 renal): > 100 µM | TGI (NCI-H226 lung): > 100 µM | TGI (DLD-1 colon): > 100 µM | TGI (SK-OV-3 ovarian): > 100 µM | TGI (HT29 colon): > 100 µM | TGI (SK-MEL-28 melanoma): > 100 µM | TGI (OVCAR-5 ovarian): > 100 µM | TGI (HOP-62 NSCLC): > 100 µM | TGI (ACHN renal): > 100 µM | TGI (SNB-75 CNS): > 100 µM | TGI (MALME-3M melanoma): > 100 µM | TGI (SNB-19 CNS): > 100 µM | TGI (A549 NSCLC): > 100 µM | TGI (SN12C renal): > 100 µM | TGI (HCC-2998 colon): > 100 µM | TGI (SK-MEL-2 melanoma): > 100 µM | TGI (HCT-116 colon): > 100 µM | TGI (UO-31 renal): > 100 µM | TGI (OVCAR-4 ovarian): > 100 µM | TGI (NCI-H460 lung): > 100 µM | TGI (DMS 273 small cell lung): > 100 µM | TGI (SF-295 CNS): > 100 µM | TGI (CCRF-CEM leukemia): > 100 µM | TGI (HOP-92 NSCLC): 53.2 µM | TGI (MOLT-4 leukemia): > 100 µM | TGI (RPMI-8226 leukemia): 86.5 µM | TGI (HCT-15 colon): > 100 µM | TGI (K-562 leukemia): > 100 µM | TGI (SNB-78 CNS): > 100 µM | TGI (HL-60(TB) leukemia): 76 µM | TGI (U251 CNS): > 100 µM | TGI (IGROV1 ovarian): > 100 µM | TGI (HOP-18 NSCLC): > 100 µM | TGI (SF-268 CNS): > 100 µM | TGI (786-0 renal): > 100 µM | TGI (OVCAR-8 ovarian): > 100 µM | TGI (NCI-H522 lung): > 100 µM | TGI (SK-MEL-5 melanoma): > 100 µM | TGI (COLO 205 colon): > 100 µM
